Experimental data taken from patent US20250017942A1, “Prevention and treatment of osteoarticular diseases by inhibiting acetylcholinesterase” (priority 2021, published 2025).
Counter-ions that a name gives are not always drawn.

How the values were obtained:
[1] = biological target: AChE (rat cortex homogenate) (Rattus norvegicus, UniProt P37136); experiment: biochemical; type: biochemical; conditions: for IC50: rat cortex homogenate, in the presence of ethopropazine as a specific BuChE inhibitor
ATDC5 cells = experiment: IL-1β-stimulated ATDC5 cells, marker expression by qPCR; type: cell-based, mouse; conditions: 10 ng/ml IL-1β, 24 h, qPCR (FIG. 3A)
RAW 264.7 cells = experiment: RANKL-induced osteoclastogenesis of RAW 264.7 cells; type: cell-based, mouse; conditions: RAW 264.7, RANKL 15 ng/ml 3 days, 0.1, 0.5 and 1 μM (FIG. 9)

AChE (rat cortex homogenate), sequence (P37136 32-614): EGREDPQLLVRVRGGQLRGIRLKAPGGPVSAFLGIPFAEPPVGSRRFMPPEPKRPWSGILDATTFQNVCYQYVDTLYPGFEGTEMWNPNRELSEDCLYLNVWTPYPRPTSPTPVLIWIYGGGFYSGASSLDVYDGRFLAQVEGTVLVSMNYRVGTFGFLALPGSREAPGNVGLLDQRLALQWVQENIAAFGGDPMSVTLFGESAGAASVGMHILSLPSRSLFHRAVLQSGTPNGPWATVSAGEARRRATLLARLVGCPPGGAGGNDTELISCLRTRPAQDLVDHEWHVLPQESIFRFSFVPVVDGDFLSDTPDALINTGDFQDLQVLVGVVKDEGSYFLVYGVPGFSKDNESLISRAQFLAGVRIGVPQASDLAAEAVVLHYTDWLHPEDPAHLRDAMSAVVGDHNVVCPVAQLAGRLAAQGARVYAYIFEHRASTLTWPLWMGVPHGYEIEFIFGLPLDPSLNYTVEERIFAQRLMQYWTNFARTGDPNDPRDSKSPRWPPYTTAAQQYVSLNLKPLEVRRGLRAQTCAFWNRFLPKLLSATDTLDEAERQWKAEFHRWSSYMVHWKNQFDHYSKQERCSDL

Question: `O=c1ccc2c([nH]1)CCCC2NCCCCCCCCCCCNC1CCCc2[nH]c(=O)ccc21` (stereo not drawn) [E11E] was tested. Which IC50 [1] did it give?
Answer: Its IC50 is 84 ± 5 nM.

Question: For `O=c1ccc2c([nH]1)CCC[C@@H]2NCCCCCCCCCCCCN[C@H]1CCCc2[nH]c(=O)ccc21` [E12E, (S,S)-(−)-N, N′-di-5′-(5′, 6′7′,8′-tetrahydroquinolin-2-onyl)-1,12-diaminododecane, bis-hydrochloride], which “Potency in inhibiting rat brain AChE relative to HA” value [1] is on record?
Answer: The value was “about twice as potent as HA”.

Question: And the “Potency in inhibiting rat brain AChE relative to tacrine” value [1]?
Answer: Its value is “about 4.4 times”.

Question: What about the “Pro-inflammatory cytokine expression after IL-1β stimulation” value (ATDC5 cells) of the same molecule?
Answer: Its value is “down-regulating key pro-inflammatory cytokines including TNF-alpha”.

Question: And the Osteoclastogenesis (RAW 264.7 cells)?
Answer: The Osteoclastogenesis was “suppressed osteoclastogenesis in a dose-dependent manner”.

Question: `O=c1ccc2c([nH]1)CCCC2NCCCCCCCCCCCCCNC1CCCc2[nH]c(=O)ccc21` (stereo not drawn) [E13E] was tested. Which IC50 [1] did it give?
Answer: The IC50 was 52 ± 9 nM.
